Measured values taken from patent US10953037B2, “Chondroitin sulfate derivative and agent for treating bladder diseases” (priority 2015, dated 2021).
Read-outs that look alike come from different tables or passages of the source.

Tests used:
[1] = tested on: hydrochloric acid-induced micturition model rats; assay: Test Example B1: urinary function, rat hydrochloric acid-induced micturition model (steroid comparison); conditions: […] (w/v %), 0.2 mL single intravesical administration two days after HCl, cystometry seven days after HCl, vs. control (saline); for Intercontraction interval: FIG. 1
[2] = tested on: hydrochloric acid-induced micturition model rats; conditions: […] (w/v %), 0.2 mL single intravesical administration two days after HCl, cystometry seven days after HCl, vs. control (saline); for Intercontraction interval: FIG. 2
Procedure: Chondroitin sulfate derivatives prepared in compliance with the methods of Examples 3, 4 and 5 were dissolved in phosphate-buffered saline to prepare the test substances indicated below.
(§1) Two days after continuous instillation of hydrochloric acid, 0.2 mL of each test substance were administered transurethrally using a catheter (PE50) and retained in the bladder for 30 minutes under anesthesia.
Intercontraction interval and single voided volume were measured after changes in intravesical pressure had stabilized.

[3] = tested on: hydrochloric acid-induced micturition model rats; assay: Test Example B3: urinary function, rat hydrochloric acid-induced micturition model (comparison of conjugates and mixture); assay type: in vivo; conditions: 3% (w/v %) conjugate or mixture of 3% CS+[…] BTM, 0.2 mL single intravesical administration, cystometry seven days after HCl, vs. control
Procedure: A chondroitin sulfate derivative prepared in compliance with the method of Example 2 was dissolved in phosphate-buffered saline to prepare the test substances indicated below.
as §1

| Substance | Single voided volume [1] | Intercontraction interval [1] | Single voided volume [2] | Intercontraction interval [2] | Single voided volume [3] | Intercontraction interval ([3]; FIG. 4) |
| --- | --- | --- | --- | --- | --- | --- |
| CS introduced with 21-β-Alanyl-Prednisolone [CS-βAla-PRED] | significant increase in single voided volume | significantly increased intercontraction interval |  |  |  |  |
| CS introduced with 21-Glycyl-Triamcinolone Acetonide [CS-Gly-TA] |  |  | significant increase in single voided volume | significantly increased intercontraction interval |  |  |
| CS introduced with 21-β-Alanyl-Triamcinolone Acetonide [CS-βAla-TA] | significant increase in single voided volume | significantly increased intercontraction interval | significant increase in single voided volume | significantly increased intercontraction interval |  |  |
| CS introduced with 21-Isoleucyl-Triamcinolone Acetonide [CS-Ile-TA] |  |  | significant increase in single voided volume | significantly increased intercontraction interval |  |  |
| CS introduced with 21-β-Alanyl-Betamethasone [CS-βAla-BTM] | significant increase in single voided volume | significantly increased intercontraction interval |  |  | significant increase in single voided volume | significantly increased intercontraction interval |
